Laboratory results published in a melting point compilation (Tetko et al.; mined from patent text by program, amines drawn as free bases though some values may be those of a salt).

SMILES	melting point
C#CCOc1cc([N+](=O)[O-])c(F)cc1Cl	88 to 89 °C
NC(=O)CNC(=O)c1cccc(-c2cccc3cc(CCc4cccc(C(F)(F)F)c4)sc23)c1	153 to 154 °C
CCN1CN(c2cccc(C(F)(F)F)c2)c2ncccc2C1=O	108 to 109 °C
Cc1ccc(-c2c3c(cc4ccc(O)cc24)-c2ccc(O)cc2CO3)cc1F	238 to 240 °C
Cc1c(-c2ccncc2)[nH]c2ccc(C3=NNC(=O)CC3C)cc12 (centres undefined)	233 to 235 °C
COc1ccc(-c2cc(=O)n(CCc3ccc(OC)c(OC)c3)nc2-c2ccc(OC)cc2)cc1	131 °C
CC(=O)SCC(CC1CN(Cc2ccccc2)CCO1)C(=O)Nc1cccc(C(=O)O)c1 (centres undefined)	103 to 105 °C
CSC(=NC#N)N(C)N	69 to 71 °C
CC(C)(Oc1ccc(OCc2cccc3c2cnn3-c2ccc(C(F)(F)F)cc2)cc1)C(=O)O	128 to 130 °C
CCOC(=O)C1=C(C(F)(F)F)Nc2n[nH]cc2C1c1cccc2ccccc12 (centres undefined)	119 to 120 °C
CN1CCN(c2nc3c(cc2F)c(=O)c(C(=O)O)cn3CCF)CC1	224 to 226 °C
C=CC[C@H]1C(=O)N(S(=O)(=O)c2cc3ccccc3s2)[C@@H]2CCN(C(=O)OCc3ccccc3)[C@H]21 (relative stereo)	146 °C
CCC(=O)N[C@H]1CC[C@H](CCN2CCN(c3nccc4ccoc34)CC2)CC1	188 °C
Cc1ccc(S(=O)(=O)N2CCCC(CC(C#N)(c3ccc(F)cc3)c3ccc(F)cc3)C2)cc1 (centres undefined)	142 to 143 °C
CCCCn1c(=O)c2cc(C(=O)O)cn2c2cc(Cl)c(Cl)cc21	281 to 283 °C
CC(=O)NN=C(C)c1ccncc1	178 °C
CN(C(=O)OCc1ccccc1)[C@@H](CCC(=O)O)C(=O)O	97 to 98 °C
COc1ccc(C2CN(Cc3ccccc3)Cc3c2ccc(OC)c3Cl)cc1OC (centres undefined)	88 to 91 °C
CSCC(C)(C)c1nnc(N)s1	117 to 120 °C
Fc1cc(Cl)c(OC(F)F)cc1-n1nc2c(c1Cl)CCCC2	83 to 85 °C
CCCCN1C(=O)c2ccc(O)cc2C1=O	126 to 127 °C
COC(=O)c1cc(-c2nc(COc3ccc(CO)cc3OC)c(C)o2)ccc1C	145 to 146 °C
CCOC(=O)c1cc2c(n1CCN)CCCC2	102 to 104 °C
CCc1cc(Br)cc2[nH]c(=O)oc(=O)c12	208 to 210 °C
CC(=O)OC1CSC(Oc2ccc3c(c2)nnn3C)C(OC(C)=O)C1OC(C)=O (centres undefined)	80 °C

SMILES	melting point
Cc1cccc(-c2n[nH]cc2-c2ccc(F)c(-c3cn[nH]c3)c2)n1	110 to 112 °C
NC(=O)C1CCN(c2ncncc2Cl)CC1	201 to 202 °C
Cc1cc(OC(F)F)nc(NC(=O)NS(=O)(=O)c2ccccc2OC(F)F)n1	163 to 164 °C
O=C(N[C@H](Cc1cccc(OC(F)(F)C(F)F)c1)[C@@H](O)c1ccc(Oc2ccccc2)cc1)c1cccc2c1C=CCCC2 (racemic)	95 to 96 °C
Cc1cc(C2=NN(c3nncs3)C(C)Cc3cc4c(cc32)OCO4)ccc1[N+](=O)[O-] (centres undefined)	182 to 189 °C
CCc1nc(-c2ccc(OCCC3CCN(c4ccc(C)nn4)CC3)cc2)co1	124 °C
O=C(O)c1ccc(OCCNC(=O)C2Cc3ccccc3N2S(=O)(=O)c2ccc(-c3cc(C(F)(F)F)ccc3Cl)cc2)cc1 (centres undefined)	117 to 121 °C
CC(=O)NCc1nc(-c2ccccc2)c(-c2ccccc2)o1	58 to 60 °C
COc1cc(OC)c2c(c1)S(=O)(=O)N(CCl)C2=O	185 to 187 °C
CCNC1CC=C(c2c[nH]c3ccc(NC(=N)c4cccs4)cc23)CC1 (centres undefined)	190 to 192 °C
O=c1c2cc(F)c(N3CCCC3)nc2n(-c2ccc(F)cc2F)c(=O)n1O	189 to 191 °C
COCn1ccnc1C(O)(c1ccc(Cl)cc1Cl)c1ccc(Cl)cc1Cl	146 °C
CC(C)(C)OC(=O)N1CCn2ccc(C#N)c2C1	97 °C
CN1CCC(OC(=O)COC(=O)c2ccccc2Nc2ccnc3c(C(F)(F)F)cccc23)(c2ccccc2)CC1	144 to 145 °C
O=C(O)CCC(=NOCc1ccc(OCc2cc(-c3ccccc3)no2)cc1)c1ccccc1	96 to 97 °C
CC(=O)OC1(c2ccccc2)C=CC(=O)C=C1	100 to 101 °C
O=C1C(c2ccc(O)cc2)=C(Br)c2c(O)cc(O)cc21	160 to 162 °C
O=C(O)Cc1nc(C(=O)c2ccccc2)no1	143 to 144 °C
CC(C)n1c(C=O)c(-c2ccc(F)cc2)c(-c2ccc(F)cc2)c1C(=O)Nc1ccc(S(N)(=O)=O)cc1	194 to 195 °C
CNC(=O)C(S(=O)(=O)CCCl)S(=O)(=O)CCCl	173 to 175 °C
CCC(=O)C1=C(O)CC(c2cc3ccccc3cc2C)CC1=O (centres undefined)	118 °C
COc1cc(CNC(=O)c2nc3ccc(F)c(OCCc4ccc(-c5c(O)noc5C)cc4)c3c(=O)[nH]2)ccc1F	240 to 242 °C
CCOC(=O)c1c(-c2cnccn2)ssc1=S	125 °C
CC(C)(C)c1cc(C=Cc2n[nH]c(=O)o2)cc(C(C)(C)C)c1O	> 260 °C
